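The compound was tested at five concentrations on cells cultured in 96-well plates, with a 48-hour exposure period. GI50 = concentration required for 50% inhibition of growth.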 The source made the active and inactive calls. Rule as the data show it: active = GI50 up to about 1.1 µM and inactive = higher.
What was measured:
Test in all cases: NCI tumour cell line growth inhibition, 48 h
OVCAR-3 = test system: OVCAR-3
M19-MEL = test system: M19-MEL
SNB-78 = test system: SNB-78
UO-31 = test system: UO-31
HCT-116 = test system: HCT-116
U-251 = test system: U-251
IGROV-1 = test system: IGROV-1
NCI-H460 = test system: NCI-H460
HOP-92 = test system: HOP-92
HCT-15 = test system: HCT-15
UACC-257 = test system: UACC-257
TK-10 = test system: TK-10
M14 = test system: M14
SF-539 = test system: SF-539
ACHN = test system: ACHN
A498 = test system: A498
KM12 = test system: KM12
HT-29 = test system: HT-29
HCC 2998 = test system: HCC 2998
786-0 = test system: 786-0
SF-268 = test system: SF-268
UACC-62 = test system: UACC-62
NCI-H23 = test system: NCI-H23
OVCAR-4 = test system: OVCAR-4
RPMI-8226 = test system: RPMI-8226
NCI-H522 = test system: NCI-H522
OVCAR-8 = test system: OVCAR-8
DMS-273 = test system: DMS-273
SN12C = test system: SN12C
HL-60 = test system: HL-60
K562 = test system: K562
DLD-1 = test system: DLD-1
XF498 = test system: XF498
DMS-114 = test system: DMS-114
OVCAR-5 = test system: OVCAR-5
COLO 205 = test system: COLO 205
SNB-75 = test system: SNB-75
SF-295 = test system: SF-295
SW-620 = test system: SW-620
SR = test system: SR
SK-MEL-2 = test system: SK-MEL-2
RXF 393 = test system: RXF 393
EKVX = test system: EKVX
NCI-H226 = test system: NCI-H226
A549 = test system: A549
SK-MEL-28 = test system: SK-MEL-28
HOP-18 = test system: HOP-18
HOP-62 = test system: HOP-62
Malme-3M = test system: Malme-3M
CAKI-1 = test system: CAKI-1
LXFL 529 = test system: LXFL 529
SNB-19 = test system: SNB-19
CCRF-CEM = test system: CCRF-CEM
SK-OV-3 = test system: SK-OV-3
LOX IMVI = test system: LOX IMVI
KM-20L2 = test system: KM-20L2
SK-MEL-5 = test system: SK-MEL-5
MOLT-4 = test system: MOLT-4
RXF 631 = test system: RXF 631

## S=c1sc2c(Cl)nc(Cl)nc2n1-c1ccccc1
OVCAR-3
  GI50: 22.9 µM (inactive)
M19-MEL
  GI50: 16.4 µM (inactive)
SNB-78
  GI50: 13.3 µM (inactive)
UO-31
  GI50: > 100 µM (inactive)
HCT-116
  GI50: 16.4 µM (inactive)
U-251
  GI50: 31 µM (inactive)
IGROV-1
  GI50: 18.2 µM (inactive)
NCI-H460
  GI50: > 100 µM (inactive)
HOP-92
  GI50: > 100 µM (inactive)
HCT-15
  GI50: 18.1 µM
UACC-257
  GI50: 53 µM (inactive)
TK-10
  GI50: > 100 µM (inactive)
M14
  GI50: 21.1 µM (inactive)
SF-539
  GI50: > 100 µM (inactive)
ACHN
  GI50: > 100 µM (inactive)
A498
  GI50: > 100 µM (inactive)
KM12
  GI50: > 100 µM (inactive)
HT-29
  GI50: 33 µM (inactive)
HCC 2998
  GI50: 52.4 µM (inactive)
786-0
  GI50: > 100 µM (inactive)
SF-268
  GI50: 11.1 µM (inactive)
UACC-62
  GI50: 14.6 µM (inactive)
NCI-H23
  GI50: 15.7 µM (inactive)
OVCAR-4
  GI50: 41.3 µM (inactive)
RPMI-8226
  GI50: > 100 µM (inactive)
NCI-H522
  GI50: 11.5 µM (inactive)
OVCAR-8
  GI50: 36.6 µM (inactive)
DMS-273
  GI50: 45.9 µM (inactive)
SN12C
  GI50: 46.2 µM (inactive)
HL-60
  GI50: 23.5 µM (inactive)
K562
  GI50: 29 µM (inactive)
DLD-1
  GI50: 16.2 µM (inactive)
XF498
  GI50: 94.2 µM (inactive)
DMS-114
  GI50: 14.2 µM (inactive)
OVCAR-5
  GI50: > 100 µM (inactive)
COLO 205
  GI50: > 100 µM (inactive)
SNB-75
  GI50: 82.6 µM (inactive)
SF-295
  GI50: > 100 µM (inactive)
SW-620
  GI50: 27.2 µM (inactive)
SR
  GI50: 22.3 µM (inactive)
SK-MEL-2
  GI50: 31.7 µM (inactive)
RXF 393
  GI50: 21.6 µM (inactive)
EKVX
  GI50: 61 µM (inactive)
NCI-H226
  GI50: 61.2 µM (inactive)
A549
  GI50: > 100 µM (inactive)
SK-MEL-28
  GI50: 15.6 µM (inactive)
HOP-18
  GI50: > 100 µM (inactive)
HOP-62
  GI50: 59.6 µM (inactive)
Malme-3M
  GI50: 8.11 µM (inactive)
CAKI-1
  GI50: > 100 µM (inactive)
LXFL 529
  GI50: 17.9 µM (inactive)
SNB-19
  GI50: > 100 µM (inactive)
CCRF-CEM
  GI50: 23.1 µM (inactive)
SK-OV-3
  GI50: > 100 µM (inactive)
LOX IMVI
  GI50: 34.8 µM (inactive)
KM-20L2
  GI50: 52.6 µM (inactive)
SK-MEL-5
  GI50: 64.4 µM (inactive)
MOLT-4
  GI50: 32.4 µM (inactive)

## CC(C(=O)c1ccccc1)C1(O)C(=O)Nc2ccccc21 (centres undefined)
OVCAR-3
  GI50: > 100 µM (inactive)
M19-MEL
  GI50: > 100 µM (inactive)
SNB-78
  GI50: > 100 µM (inactive)
UO-31
  GI50: > 100 µM (inactive)
HCT-116
  GI50: > 100 µM (inactive)
U-251
  GI50: > 100 µM (inactive)
IGROV-1
  GI50: > 100 µM (inactive)
NCI-H460
  GI50: > 100 µM (inactive)
HOP-92
  GI50: > 100 µM (inactive)
HCT-15
  GI50: > 100 µM
UACC-257
  GI50: > 100 µM (inactive)
TK-10
  GI50: > 100 µM (inactive)
M14
  GI50: > 100 µM (inactive)
SF-539
  GI50: > 100 µM (inactive)
ACHN
  GI50: > 100 µM (inactive)
A498
  GI50: > 100 µM (inactive)
KM12
  GI50: > 100 µM (inactive)
HT-29
  GI50: > 100 µM (inactive)
HCC 2998
  GI50: > 100 µM (inactive)
786-0
  GI50: > 100 µM (inactive)
SF-268
  GI50: > 100 µM (inactive)
UACC-62
  GI50: > 100 µM (inactive)
NCI-H23
  GI50: > 100 µM (inactive)
OVCAR-4
  GI50: > 100 µM (inactive)
RPMI-8226
  GI50: > 100 µM (inactive)
NCI-H522
  GI50: > 100 µM (inactive)
DMS-273
  GI50: > 100 µM (inactive)
SN12C
  GI50: > 100 µM (inactive)
K562
  GI50: > 100 µM (inactive)
DLD-1
  GI50: > 100 µM (inactive)
DMS-114
  GI50: > 100 µM (inactive)
OVCAR-5
  GI50: > 100 µM (inactive)
COLO 205
  GI50: > 100 µM (inactive)
SNB-75
  GI50: > 100 µM (inactive)
RXF 631
  GI50: > 100 µM (inactive)
SF-295
  GI50: > 100 µM (inactive)
SW-620
  GI50: > 100 µM (inactive)
SR
  GI50: > 100 µM (inactive)
SK-MEL-2
  GI50: > 100 µM (inactive)
RXF 393
  GI50: > 100 µM (inactive)
EKVX
  GI50: > 100 µM (inactive)
NCI-H226
  GI50: > 100 µM (inactive)
A549
  GI50: > 100 µM (inactive)
SK-MEL-28
  GI50: > 100 µM (inactive)
HOP-18
  GI50: > 100 µM (inactive)
HOP-62
  GI50: > 100 µM (inactive)
Malme-3M
  GI50: > 100 µM (inactive)
CAKI-1
  GI50: > 100 µM (inactive)
SNB-19
  GI50: > 100 µM (inactive)
CCRF-CEM
  GI50: > 100 µM (inactive)
SK-OV-3
  GI50: > 100 µM (inactive)
LOX IMVI
  GI50: > 100 µM (inactive)
KM-20L2
  GI50: > 100 µM (inactive)
SK-MEL-5
  GI50: > 100 µM (inactive)
MOLT-4
  GI50: > 100 µM (inactive)

## CCc1cc(Cc2ccc(C)c(NC(=O)C(=O)C3C(=O)NC(=O)NC3=O)c2CC)cc(C)c1NC(=O)C(=O)C1C(=O)NC(=O)NC1=O
OVCAR-3
  GI50: > 100 µM (inactive)
M19-MEL
  GI50: > 100 µM (inactive)
SNB-78
  GI50: > 100 µM (inactive)
UO-31
  GI50: > 100 µM (inactive)
HCT-116
  GI50: > 100 µM (inactive)
U-251
  GI50: > 100 µM (inactive)
IGROV-1
  GI50: > 100 µM (inactive)
NCI-H460
  GI50: > 100 µM (inactive)
HCT-15
  GI50: > 100 µM
UACC-257
  GI50: > 100 µM (inactive)
TK-10
  GI50: > 100 µM (inactive)
M14
  GI50: > 100 µM (inactive)
SF-539
  GI50: > 100 µM (inactive)
ACHN
  GI50: > 100 µM (inactive)
A498
  GI50: > 100 µM (inactive)
KM12
  GI50: > 100 µM (inactive)
HCC 2998
  GI50: > 100 µM (inactive)
786-0
  GI50: > 100 µM (inactive)
SF-268
  GI50: > 100 µM (inactive)
UACC-62
  GI50: > 100 µM (inactive)
NCI-H23
  GI50: > 100 µM (inactive)
OVCAR-4
  GI50: > 100 µM (inactive)
RPMI-8226
  GI50: > 100 µM (inactive)
NCI-H522
  GI50: > 100 µM (inactive)
OVCAR-8
  GI50: > 100 µM (inactive)
DMS-273
  GI50: > 100 µM (inactive)
HL-60
  GI50: > 100 µM (inactive)
K562
  GI50: > 100 µM (inactive)
DLD-1
  GI50: > 100 µM (inactive)
DMS-114
  GI50: > 100 µM (inactive)
OVCAR-5
  GI50: > 100 µM (inactive)
COLO 205
  GI50: > 100 µM (inactive)
SNB-75
  GI50: 24.6 µM (inactive)
RXF 631
  GI50: > 100 µM (inactive)
SW-620
  GI50: > 100 µM (inactive)
SK-MEL-2
  GI50: > 100 µM (inactive)
RXF 393
  GI50: > 100 µM (inactive)
EKVX
  GI50: > 100 µM (inactive)
A549
  GI50: > 100 µM (inactive)
SK-MEL-28
  GI50: > 100 µM (inactive)
HOP-62
  GI50: > 100 µM (inactive)
Malme-3M
  GI50: > 100 µM (inactive)
CAKI-1
  GI50: 41.8 µM (inactive)
LXFL 529
  GI50: > 100 µM (inactive)
SNB-19
  GI50: > 100 µM (inactive)
CCRF-CEM
  GI50: > 100 µM (inactive)
SK-OV-3
  GI50: > 100 µM (inactive)
LOX IMVI
  GI50: > 100 µM (inactive)
KM-20L2
  GI50: > 100 µM (inactive)
SK-MEL-5
  GI50: > 100 µM (inactive)
MOLT-4
  GI50: 93.5 µM (inactive)

Reference: ChEMBL document CHEMBL1201862, “PubChem BioAssay data set” (2004)
